Data reported in publication PMC11288027, “Exploring novel microbial metabolites and drugs for inhibiting Clostridioides difficile” (mSphere, 2024).
Values after ≈ are worked out from the molar mass of the structure shown. Like-named read-outs stand apart in the source and are kept apart here.

What was measured:
[1] = tested on: Bif. angulatum; assay: MIC against human gut microbiota; assay type: cell-based, Bifidobacterium angulatum; conditions: Bifidobacterium angulatum; Bif. angulatum HM- 1189, BHIS broth, anaerobic; read-out: minimum inhibitory concentration (MIC)
[2] = tested on: L. brevis; assay: MIC against human gut microbiota; assay type: cell-based, Lactobacillus brevis; conditions: Levilactobacillus brevis, ATCC14864; L. brevis ATCC-14864, MRS broth, 5% CO2; read-out: minimum inhibitory concentration (MIC)
[3] = tested on: E. fecalis; assay: MIC against human gut microbiota; assay type: cell-based, Enterococcus faecalis; conditions: Enterococcus faecalis; E. fecalis HM-970, TSB, aerobic; read-out: minimum inhibitory concentration (MIC)
[4] = tested on: Bif. breve; assay: MIC against human gut microbiota; assay type: cell-based, Bifidobacterium breve; conditions: Bifidobacterium breve, ATCC15700; Bif. breve ATCC 15700, BHIS broth, anaerobic; read-out: minimum inhibitory concentration (MIC)
[5] = tested on: B. dorei; assay: MIC against human gut microbiota; assay type: cell-based, Bacteroides dorei; conditions: Phocaeicola dorei; B. dorei HM- 719, BHIS broth, anaerobic; read-out: minimum inhibitory concentration (MIC)
[6] = tested on: Bif. longum; assay: MIC against human gut microbiota; assay type: cell-based, Bifidobacterium longum; conditions: Bifidobacterium longum, anaerobic, read-out: minimum inhibitory concentration (MIC)
[7] = tested on: L. casei; assay: MIC against human gut microbiota; assay type: cell-based; conditions: Lacticaseibacillus casei, ATCC334; L. casei ATCC 334, MRS broth, 5% CO2; read-out: minimum inhibitory concentration (MIC)
[8] = tested on: L. rhamanosus; assay: MIC against human gut microbiota; assay type: cell-based, Lactobacillus rhamnoosus; conditions: Lactobacillus, ATCC53103; L. rhamanosus ATCC-53103, MRS broth, 5% CO2; read-out: minimum inhibitory concentration (MIC)
[9] = tested on: Bif. adolescentis; assay: MIC against human gut microbiota; assay type: cell-based, Bifidobacterium adolescentis; conditions: Bifidobacterium adolescentis; Bif. adolescentis HM- 633, BHIS broth, anaerobic; read-out: minimum inhibitory concentration (MIC)
[10] = tested on: C. difficile clinical isolates; assay: MIC against a panel of 20 C. difficile clinical isolates (broth microdilution); assay type: cell-based, Clostridioides difficile; conditions: Clostridioides difficile; for MIC50: concentration that inhibited 50% of the 20 C. difficile clinical isolates, read-out: MIC50; for MIC: read-out: minimum inhibitory concentration (MIC)
[11] = tested on: B. fragilis; assay: MIC against human gut microbiota; assay type: cell-based, Bacteroides fragilis; conditions: Bacteroides fragilis, anaerobic, read-out: minimum inhibitory concentration (MIC)
[12] = tested on: C. difficile ATCC BAA-1870; assay: MIC of active hits by broth microdilution; conditions: C. difficile ATCC BAA-1870, 48 h anaerobic
[13] = tested on: E. faecium; assay: MIC against human gut microbiota; assay type: cell-based, Enterococcus faecium; conditions: Enterococcus faecium; E. faecium HM-202, TSB, aerobic; read-out: minimum inhibitory concentration (MIC)

## Cc1ccc2c(Cl)cc(Cl)c(O)c2n1 [Chlorquinaldol]
[1]
  MIC: 32 µg/mL (≈ 140 µM)
[2]
  MIC: > 256 µg/mL
[3]
  MIC: 128 µg/mL (≈ 561 µM)
[4]
  MIC: > 256 µg/mL
[5]
  MIC: ≤ 2 µg/mL
[6]; Bif. longum HM- 845, BHIS broth
  MIC: 128 µg/mL (≈ 561 µM)
[6]; Bif. longum HM- 846, BHIS broth
  MIC: 32 µg/mL (≈ 140 µM)
[6]; Bif. longum HM- 847, BHIS broth
  MIC: 64 µg/mL (≈ 281 µM)
[6]; Bif. longum HM- 848, BHIS broth
  MIC: 64 µg/mL (≈ 281 µM)
[7]
  MIC: > 256 µg/mL
[8]
  MIC: > 256 µg/mL
[9]
  MIC: 32 µg/mL (≈ 140 µM)
[10]; 48 h
  MIC50: 0.125 µg/mL (≈ 0.548 µM)
[10]; ATCC630, C. difficile ATCC 630
  MIC: 0.25 µg/mL (≈ 1.1 µM)
[10]; ATCC43255, C. difficile ATCC 43255
  MIC: 0.06 µg/mL (≈ 0.263 µM)
[10]; ATCCBAA1870, C. difficile ATCC BAA-1870 (Ribotype-027), purchased compounds, panel test
  MIC: 0.125 µg/mL (≈ 0.548 µM)
[10]; C. difficile CD-1 (Ribotype-027)
  MIC: 0.125 µg/mL (≈ 0.548 µM)
[10]; C. difficile CD-6 (Ribotype-027)
  MIC: 0.125 µg/mL (≈ 0.548 µM)
[10]; C. difficile CD-10(Ribotype-027)
  MIC: 0.125 µg/mL (≈ 0.548 µM)
[10]; C. difficile CD-12
  MIC: 0.25 µg/mL (≈ 1.1 µM)
[10]; C. difficile CD-13
  MIC: 0.25 µg/mL (≈ 1.1 µM)
[10]; C. difficile CD-15
  MIC: 0.125 µg/mL (≈ 0.548 µM)
[10]; C. difficile CD-22
  MIC: 0.125 µg/mL (≈ 0.548 µM)
[10]; C. difficile CD-23
  MIC: 0.125 µg/mL (≈ 0.548 µM)
[10]; C. difficile CD-24
  MIC: 0.06 µg/mL (≈ 0.263 µM)
[10]; C. difficile CD-26 (Ribotype-027)
  MIC: 0.125 µg/mL (≈ 0.548 µM)
[10]; C. difficile CD-28
  MIC: 0.125 µg/mL (≈ 0.548 µM)
[10]; C. difficile CD-29 (Ribotype-027)
  MIC: 0.06 µg/mL (≈ 0.263 µM)
[10]; C. difficile CD-30
  MIC: 0.5 µg/mL (≈ 2.19 µM)
[10]; C. difficile NR-49302
  MIC: 0.125 µg/mL (≈ 0.548 µM)
[10]; C. difficile NR-49304
  MIC: 0.06 µg/mL (≈ 0.263 µM)
[10]; C. difficile NR-49308
  MIC: 0.06 µg/mL (≈ 0.263 µM)
[10]; C. difficile NR-49319
  MIC: 0.06 µg/mL (≈ 0.263 µM)
[10]
  MIC50: 0.125 µg/mL (≈ 0.548 µM)
[10]; concentration that inhibited 90% of the 20 C. difficile clinical isolates, read-out: MIC90
  MIC90: 0.25 µg/mL (≈ 1.1 µM)
[11]; B. fragilis HM- 709, BHIS broth
  MIC: ≤ 2 µg/mL
[11]; B. fragilis HM- 718, BHIS broth
  MIC: ≤ 2 µg/mL
[12]
  MIC (μM): 2 µM
[12]; Clostridioides difficile, ATCCBAA1870, 48 h
  MIC: 0.91 µg/mL
[13]
  MIC: > 256 µg/mL
